Results on six compounds are retold here after paper PMC4710668, “Bioactivation of food genotoxicants 5-hydroxymethylfurfural and furfuryl alcohol by sulfotransferases from human, mouse and rat: a comparative study” (Archives of Toxicology, 2014).

On the set-up of data set [1]: method as in Glatt et al. [2012]. The settings on record: in water at 37 °C; ref Glatt et al. [2012]; cited from earlier work.
The next data set has as its target T1, hSULT1A1 (Homo sapiens, UniProt P50225).
T1 construct: made in house; host or cells: Salmonella typhimurium TA1538 (cytosolic fraction, not purified)
The settings on record: cited from earlier work; for K M of sulfoconjugation: ref Honma et al. [2001].

A short description of data set [2]: Stability of SMF in solution. In kind it is physicochemical. The settings on record: solutions containing 75 % 2-propanol at 4 °C, within four weeks. Here is the method:
The analytical technique used in this study was adapted from the SMF quantification in plasma samples of HMF-treated mice (Monien et al. [2009]). This is beset with two potential sources of inaccuracy. […] Here, we chose a reaction time of 30 min. […] SMF was analyzed by UPLC-MS/MS in the MRM mode using the specific fragmentation reactions of the sulfate ion radical (m/z = 204.9 → 96.0) and the protonated sulfonate ion (m/z = 204.9 → 81.0) (Monien et al. [2009]). Representative chromatograms are shown in Fig. S2 of the Supplementary Material. The SMF levels resulting from HMF sulfoconjugation were quantified using SMF solutions at various concentrations as external calibration line prepared in water/2-propanol (1:3), which represents the solvent composition in the incubation mixture following instant stopping and precipitating of proteins. The second source of imprecision of mass spectrometric SMF quantification with an external calibration is the possible ion suppression by residues from bacterial cytosol or buffer salts in the samples. This was tested in a separate experiment measuring the peak areas of six series of solutions with five different SMF concentrations, either prepared with water or with the contents of the incubation mixture including 1 mg/ml protein from a cytosolic preparation of native S. typhimurium TA1538.

On the set-up of data set [3]: method as in Monien et al. [2009]. To be noted: ref Monien et al. [2009], cited from earlier work.

Like-named read-outs stand apart in the source and are kept apart here.

T1 sequence (P50225 whole entry): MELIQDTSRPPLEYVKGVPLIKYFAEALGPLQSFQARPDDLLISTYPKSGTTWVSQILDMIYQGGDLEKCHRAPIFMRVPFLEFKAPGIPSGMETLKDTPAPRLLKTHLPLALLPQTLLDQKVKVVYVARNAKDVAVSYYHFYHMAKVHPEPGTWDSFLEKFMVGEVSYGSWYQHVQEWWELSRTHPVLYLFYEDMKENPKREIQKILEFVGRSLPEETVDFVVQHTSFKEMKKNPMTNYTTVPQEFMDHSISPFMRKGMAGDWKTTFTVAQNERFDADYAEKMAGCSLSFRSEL

For `O=S(=O)(O)OCc1ccco1` [2-sulfoxymethylfuran], the “t 1/2” value in data set [1] is 20 s. On to `COc1cc2c(CCNC(C)=O)c[nH]c2cc1O` [6-hydroxymelatonin], for which, on hSULT1A1, the “K M of sulfoconjugation” value is 18 µM.

Broadly, the half-life is the time in which the quantity being followed falls by half. As for `O=Cc1ccc(COS(=O)(=O)O)o1` [SMF, 5-sulfoxymethylfurfural], in data set [2], the stability entry is reported as “without any detectable degradation”. The half-life is 108 min in data set [3] (in plasma at 37 °C), 126 min in data set [3] (in urine at 37 °C) and 114 min in data set [3] (in water at 37 °C).

Take `NCCc1ccc(O)c(O)c1` [dopamine]: the “K M of sulfoconjugation” value at hSULT1A1 was 130 µM. Consider `O=[N+]([O-])c1ccc(O)cc1` [p-nitrophenol], for which the “K M of sulfoconjugation” value on hSULT1A1 is on record as 3.0 µM. Regarding `CC(=O)Nc1ccc(O)cc1` [paracetamol], the “K M of turnover” value at hSULT1A1 (ref Adjei et al. [2008]) is given as 2.4 mM.
